Data taken from ChEMBL document CHEMBL1150863, “New triterpenoid saponins from the sponge Erylus nobilis” (2001).
In brackets after ≈: the same amount, converted by molar mass.

These molecules were tested on K562 (assay: Cytotoxicity against human K562 cells). Conditions: read-out: LC50 (the source's name).
Format: functional

C=C(CC[C@@H](C)[C@H]1CC[C@@]2(C(=O)O)C3=C(CC[C@]12C)[C@@]1(C)CCC(O[C@@H]2O[C@H](CO)[C@H](O)[C@H](O[C@@H]4OC[C@H](O)[C@H](O)[C@H]4O)[C@H]2O[C@@H]2O[C@H](CO)[C@@H](O)[C@H](O)[C@H]2NC(C)=O)C(C)(C)[C@@H]1CC3)C(C)(C)C (some centres undefined) [ERYLOSIDE I] and C=C(CC[C@@H](C)[C@H]1CC[C@@]2(C(=O)O)C3=C(CC[C@]12C)[C@@]1(C)CCC(O[C@@H]2O[C@H](CO)[C@H](O)[C@H](O[C@@H]4OC[C@H](O)[C@H](O)[C@H]4O)[C@H]2O[C@@H]2O[C@H](CO)[C@@H](O)[C@H](O)[C@H]2NC(C)=O)C(C)(C)[C@@H]1CC3)C(C)C (some centres undefined) [ERYLOSIDE G] are within 1.5-fold of each other in CC50: 17.9 µg/mL (≈ 18.2 µM) for the first, 22.1 µg/mL (≈ 22.8 µM) for the second.

C=C(CC[C@@H](C)[C@H]1CC[C@@]2(C(=O)O)C3=C(CC[C@]12C)[C@@]1(C)CCC(O[C@@H]2OC[C@H](O)[C@H](O[C@@H]4OC[C@H](O)[C@H](O)[C@H]4O)[C@H]2O[C@@H]2O[C@H](CO)[C@@H](O)[C@H](O)[C@H]2NC(C)=O)C(C)(C)[C@@H]1CC3)C(C)C (some centres undefined) [ERYLOSIDE H] and C=C(CC[C@@H](C)[C@H]1CC[C@@]2(C(=O)O)C3=C(CC[C@]12C)[C@@]1(C)CCC(O[C@@H]2OC[C@H](O)[C@H](O[C@@H]4OC[C@H](O)[C@H](O)[C@H]4O)[C@H]2O[C@@H]2O[C@H](CO)[C@@H](O)[C@H](O)[C@H]2NC(C)=O)C(C)(C)[C@@H]1CC3)C(C)(C)C (some centres undefined) [ERYLOSIDE J] are within 1.5-fold of each other in CC50: 24.8 µg/mL (≈ 26.4 µM) for the first, 21.8 µg/mL (≈ 22.9 µM) for the second.
